Measured values reported in patent US20220347171A1, “TREATMENT OF PRURIGO NODULARIS” (TREVI THERAPEUTICS, INC., priority 2016, published 2022).
Structures can show the parent of a compound that is named as a salt.

System: prurigo nodularis patients
Assay: TR03ext (Example 3): Prurigo Activity Score (PAS) healed lesions; Stage 0 100% healed, Stage 1 75%-99%, Stage 2 50%-74%, Stage 3 25%-49%, Stage 4 0-24% healed
Assay type: in vivo, human
Source text: In some embodiments, after the treatment the patient experiences a substantial reduction of itch that is characterized by at least one category/stage improvement in Prurigo Activity Score (PAS). In particular embodiments, after the treatment the patient experiences a reduction of itch that results in at least one category/stage improvement in Prurigo Activity Score (PAS) domains of number of prurigo lesions, prurigo lesions with excoriations/crusts and/or healed prurigo lesions. The PAS consists of 7 qualitative and quantitative measurements related to the examination of the skin. Type, number, distribution, affected body parts, and quantitative number of lesions in a representative body part are documented. The biggest lesion and the most representative lesion are monitored with documentation of height and area measurements. Prurigo lesion activity is recorded as a percentages based on their stage (0-4). In some embodiments, number measurements of lesions on the body have four numerical categories: 0, 1-19, 20-100 and >100. In some embodiments, prurigo lesions with excoriations/crusts have five categories: Stage 4 (76%-100%), Stage 3 (51%-75%), Stage 2 (26%-50%), Stage 1 (1-25%) and Stage 0 (0%). In some embodiments, healed prurigo lesions have five categories: Stage 4 (0-24%), Stage 3 (25-49%), Stage 2 (50-74%), Stage 1 (75%-99%), Stage 0 (100%).
This clinical study was a Phase 2 Open Label Extension Study (clinical study TR03ext) of the randomized, double-blind, 3-parallel arm, placebo controlled dose ranging study described in Example 2. All those subjects who were randomized, and then completed Example 2 study, were eligible to participate in the Extension Study.
The primary endpoint was a description of the overall incidence and nature of Treatment-Emergent AEs (TEAES) during weeks 5-50 of the study. Exploratory efficacy endpoints included Change from Baseline patient reported outcome measures of Worst itch NRS, itchy VRS and ItchyQoL, by Treatment Period study visit and Baseline NRS score. There was also an assessment of any potential skin lesion changes over time using the metrics of the PAS.
Patients in Extension Study were titrated over a dose range of 30 mg QD to 180 mg BID based on tolerability. The selected dose range was based on Example 2 study whereby patients were titrated from a 30 mg QD dose either to 30 mg BID, 60 mg BID, 90 mg BID, 120 mg BID or a 180 mg BID dose. The highest dose proposed was 180 mg BID (360 mg daily dose), and was well below the highest recommended daily treatment of 160 mg IV (equivalent to 960 mg oral) for the current marketed parenteral administered product.
Tables 12, 13 and 14 display healed lesion PAS data for subjects who received treatment for at least 6 months, subjects who received treatment for at least 9 months and subjects who completed 50 weeks of treatment in the study, respectively. The status of the healed lesion activity is reported as percentages based on their stage (0-4) using a grading system: Stage 0 (100% healed); Stage 1 (75%-99% healed); Stage 2 (50%-74% healed); Stage 3 (25%-49% healed); Stage 4: 0-24% healed. Thus the higher the stage, the […] the prurigo skin pathology.

[1] = treatment for at least 6 months
[2] = treatment for at least 9 months

Oc1ccc2c3c1OC1[C@@H](O)CC[C@@]4(O)[C@@H](C2)N(CC2CCC2)CC[C@]314 (stereo partly drawn) [Nalbuphine, 17-(cyclobutylmethyl)-4,5α-epoxymorphinian-3, 6α, 14-triol, hydrochloride]
Subjects with at least one category improvement in the percentage of healed lesions (PAS) (after 6 months, 10/16): 62.5% | Subjects with at least one category improvement in the percentage of healed lesions (PAS) (after 9 months, 7/13): 53.8% | Subjects with at least one category improvement in the percentage of healed lesions (PAS) (after 12 months, 6/12): 50% | Healed lesion PAS Category Shift: Baseline Stage 0 to Last Observed Stage 0 (treatment for 50 weeks): 1 (7.7) Number (%) of Subjects | Healed lesion PAS Category Shift: Baseline Stage 0 to Last Observed Stage 1 (treatment for 50 weeks): 0 Number (%) of Subjects | Healed lesion PAS Category Shift: Baseline Stage 0 to Last Observed Stage 2 (treatment for 50 weeks): 0 Number (%) of Subjects | Healed lesion PAS Category Shift: Baseline Stage 0 to Last Observed Stage 3 (treatment for 50 weeks): 0 Number (%) of Subjects | Healed lesion PAS Category Shift: Baseline Stage 0 to Last Observed Stage 4 (treatment for 50 weeks): 0 Number (%) of Subjects | Healed lesion PAS Category Shift: Baseline Stage 1 to Last Observed Stage 0 (treatment for 50 weeks): 0 Number (%) of Subjects | Healed lesion PAS Category Shift: Baseline Stage 1 to Last Observed Stage 1 (treatment for 50 weeks): 2 (15.4) Number (%) of Subjects | Healed lesion PAS Category Shift: Baseline Stage 1 to Last Observed Stage 2 (treatment for 50 weeks): 1 (7.7) Number (%) of Subjects | Healed lesion PAS Category Shift: Baseline Stage 1 to Last Observed Stage 3 (treatment for 50 weeks): 0 Number (%) of Subjects | Healed lesion PAS Category Shift: Baseline Stage 1 to Last Observed Stage 4 (treatment for 50 weeks): 0 Number (%) of Subjects | Healed lesion PAS Category Shift: Baseline Stage 2 to Last Observed Stage 0 (treatment for 50 weeks): 0 Number (%) of Subjects | Healed lesion PAS Category Shift: Baseline Stage 2 to Last Observed Stage 1 (treatment for 50 weeks): 3 (23.1) Number (%) of Subjects | Healed lesion PAS Category Shift: Baseline Stage 2 to Last Observed Stage 2 (treatment for 50 weeks): 0 Number (%) of Subjects | Healed lesion PAS Category Shift: Baseline Stage 2 to Last Observed Stage 3 (treatment for 50 weeks): 0 Number (%) of Subjects | Healed lesion PAS Category Shift: Baseline Stage 2 to Last Observed Stage 4 (treatment for 50 weeks): 0 Number (%) of Subjects | Healed lesion PAS Category Shift: Baseline Stage 3 to Last Observed Stage 0 (treatment for 50 weeks): 0 Number (%) of Subjects | Healed lesion PAS Category Shift: Baseline Stage 3 to Last Observed Stage 1 (treatment for 50 weeks): 0 Number (%) of Subjects | Healed lesion PAS Category Shift: Baseline Stage 3 to Last Observed Stage 2 (treatment for 50 weeks): 0 Number (%) of Subjects | Healed lesion PAS Category Shift: Baseline Stage 3 to Last Observed Stage 3 (treatment for 50 weeks): 2 (15.4) Number (%) of Subjects | Healed lesion PAS Category Shift: Baseline Stage 3 to Last Observed Stage 4 (treatment for 50 weeks): 0 Number (%) of Subjects | Healed lesion PAS Category Shift: Baseline Stage 4 to Last Observed Stage 0 (treatment for 50 weeks): 1 (7.7) Number (%) of Subjects | Healed lesion PAS Category Shift: Baseline Stage 4 to Last Observed Stage 1 (treatment for 50 weeks): 0 (7.7) Number (%) of Subjects | Healed lesion PAS Category Shift: Baseline Stage 4 to Last Observed Stage 2 (treatment for 50 weeks): 1 (7.7) Number (%) of Subjects | Healed lesion PAS Category Shift: Baseline Stage 4 to Last Observed Stage 3 (treatment for 50 weeks): 1 (7.7) Number (%) of Subjects | Healed lesion PAS: Last Observed PAS Result Stage 0 (treatment for 50 weeks): 2 (15.4) Number (%) of Subjects | Healed lesion PAS: Last Observed PAS Result Stage 1 (treatment for 50 weeks): 6 (46.1) Number (%) of Subjects | Healed lesion PAS: Last Observed PAS Result Stage 2 (treatment for 50 weeks): 2 (15.4) Number (%) of Subjects | Healed lesion PAS: Last Observed PAS Result Stage 3 (treatment for 50 weeks): 3 (23.1) Number (%) of Subjects | Healed lesion PAS: Last Observed PAS Result Stage 4 (treatment for 50 weeks): 1 (7.7) Number (%) of Subjects | Healed lesion PAS Category Shift: Baseline Stage 0 to Last Observed Stage 0 [1]: 1 (5.9) Number (%) of Subjects | Healed lesion PAS Category Shift: Baseline Stage 0 to Last Observed Stage 1 [1]: 0 Number (%) of Subjects | Healed lesion PAS Category Shift: Baseline Stage 0 to Last Observed Stage 2 [1]: 0 Number (%) of Subjects | Healed lesion PAS Category Shift: Baseline Stage 0 to Last Observed Stage 3 [1]: 0 Number (%) of Subjects | Healed lesion PAS Category Shift: Baseline Stage 0 to Last Observed Stage 4 [1]: 0 Number (%) of Subjects | Healed lesion PAS Category Shift: Baseline Stage 1 to Last Observed Stage 0 [1]: 0 Number (%) of Subjects | Healed lesion PAS Category Shift: Baseline Stage 1 to Last Observed Stage 1 [1]: 2 (11.8) Number (%) of Subjects | Healed lesion PAS Category Shift: Baseline Stage 1 to Last Observed Stage 2 [1]: 1 (5.9) Number (%) of Subjects | Healed lesion PAS Category Shift: Baseline Stage 1 to Last Observed Stage 3 [1]: 0 Number (%) of Subjects | Healed lesion PAS Category Shift: Baseline Stage 1 to Last Observed Stage 4 [1]: 0 Number (%) of Subjects | Healed lesion PAS Category Shift: Baseline Stage 2 to Last Observed Stage 0 [1]: 1 (5.9) Number (%) of Subjects | Healed lesion PAS Category Shift: Baseline Stage 2 to Last Observed Stage 1 [1]: 3 (17.6) Number (%) of Subjects | Healed lesion PAS Category Shift: Baseline Stage 2 to Last Observed Stage 2 [1]: 0 Number (%) of Subjects | Healed lesion PAS Category Shift: Baseline Stage 2 to Last Observed Stage 3 [1]: 0 Number (%) of Subjects | Healed lesion PAS Category Shift: Baseline Stage 2 to Last Observed Stage 4 [1]: 0 Number (%) of Subjects | Healed lesion PAS Category Shift: Baseline Stage 3 to Last Observed Stage 0 [1]: 0 Number (%) of Subjects | Healed lesion PAS Category Shift: Baseline Stage 3 to Last Observed Stage 1 [1]: 1 (5.9) Number (%) of Subjects | Healed lesion PAS Category Shift: Baseline Stage 3 to Last Observed Stage 2 [1]: 0 Number (%) of Subjects | Healed lesion PAS Category Shift: Baseline Stage 3 to Last Observed Stage 3 [1]: 2 (11.8) Number (%) of Subjects | Healed lesion PAS Category Shift: Baseline Stage 3 to Last Observed Stage 4 [1]: 0 Number (%) of Subjects | Healed lesion PAS Category Shift: Baseline Stage 4 to Last Observed Stage 0 [1]: 1 (5.9) Number (%) of Subjects | Healed lesion PAS Category Shift: Baseline Stage 4 to Last Observed Stage 1 [1]: 2 (11.8) Number (%) of Subjects | Healed lesion PAS Category Shift: Baseline Stage 4 to Last Observed Stage 2 [1]: 1 (5.9) Number (%) of Subjects | Healed lesion PAS Category Shift: Baseline Stage 4 to Last Observed Stage 3 [1]: 1 (5.9) Number (%) of Subjects | Healed lesion PAS Category Shift: Baseline Stage 4 to Last Observed Stage 4 [1]: 1 (5.9) Number (%) of Subjects | Healed lesion PAS: Last Observed PAS Result Stage 0 [1]: 3 (17.6) Number (%) of Subjects | Healed lesion PAS: Last Observed PAS Result Stage 1 [1]: 9 (52.9) Number (%) of Subjects | Healed lesion PAS: Last Observed PAS Result Stage 2 [1]: 2 (11.8) Number (%) of Subjects | Healed lesion PAS: Last Observed PAS Result Stage 3 [1]: 3 (17.6) Number (%) of Subjects | Healed lesion PAS: Last Observed PAS Result Stage 4 [1]: 1 (5.9) Number (%) of Subjects | Healed lesion PAS Category Shift: Baseline Stage 0 to Last Observed Stage 0 [2]: 1 (7.1%) Number (%) of Subjects | Healed lesion PAS Category Shift: Baseline Stage 0 to Last Observed Stage 1 [2]: 0 Number (%) of Subjects | Healed lesion PAS Category Shift: Baseline Stage 0 to Last Observed Stage 2 [2]: 0 Number (%) of Subjects | Healed lesion PAS Category Shift: Baseline Stage 0 to Last Observed Stage 3 [2]: 0 Number (%) of Subjects | Healed lesion PAS Category Shift: Baseline Stage 0 to Last Observed Stage 4 [2]: 0 Number (%) of Subjects | Healed lesion PAS Category Shift: Baseline Stage 1 to Last Observed Stage 0 [2]: 0 Number (%) of Subjects | Healed lesion PAS Category Shift: Baseline Stage 1 to Last Observed Stage 1 [2]: 2 (14.3) Number (%) of Subjects | Healed lesion PAS Category Shift: Baseline Stage 1 to Last Observed Stage 2 [2]: 1 (7.1) Number (%) of Subjects | Healed lesion PAS Category Shift: Baseline Stage 1 to Last Observed Stage 3 [2]: 0 Number (%) of Subjects | Healed lesion PAS Category Shift: Baseline Stage 1 to Last Observed Stage 4 [2]: 0 Number (%) of Subjects | Healed lesion PAS Category Shift: Baseline Stage 2 to Last Observed Stage 0 [2]: 0 Number (%) of Subjects | Healed lesion PAS Category Shift: Baseline Stage 2 to Last Observed Stage 1 [2]: 3 (21.4) Number (%) of Subjects | Healed lesion PAS Category Shift: Baseline Stage 2 to Last Observed Stage 2 [2]: 0 Number (%) of Subjects | Healed lesion PAS Category Shift: Baseline Stage 2 to Last Observed Stage 3 [2]: 0 Number (%) of Subjects | Healed lesion PAS Category Shift: Baseline Stage 2 to Last Observed Stage 4 [2]: 0 Number (%) of Subjects | Healed lesion PAS Category Shift: Baseline Stage 3 to Last Observed Stage 0 [2]: 0 Number (%) of Subjects | Healed lesion PAS Category Shift: Baseline Stage 3 to Last Observed Stage 1 [2]: 0 Number (%) of Subjects | Healed lesion PAS Category Shift: Baseline Stage 3 to Last Observed Stage 2 [2]: 0 Number (%) of Subjects | Healed lesion PAS Category Shift: Baseline Stage 3 to Last Observed Stage 3 [2]: 2 (14.3) Number (%) of Subjects | Healed lesion PAS Category Shift: Baseline Stage 3 to Last Observed Stage 4 [2]: 0 Number (%) of Subjects | Healed lesion PAS Category Shift: Baseline Stage 4 to Last Observed Stage 0 [2]: 1 (7.1) Number (%) of Subjects | Healed lesion PAS Category Shift: Baseline Stage 4 to Last Observed Stage 1 [2]: 1 (7.1) Number (%) of Subjects | Healed lesion PAS Category Shift: Baseline Stage 4 to Last Observed Stage 2 [2]: 1 (7.1) Number (%) of Subjects | Healed lesion PAS Category Shift: Baseline Stage 4 to Last Observed Stage 3 [2]: 1 (7.1) Number (%) of Subjects | Healed lesion PAS Category Shift: Baseline Stage 4 to Last Observed Stage 4 [2]: 1 (7.1) Number (%) of Subjects | Healed lesion PAS: Last Observed PAS Result Stage 0 [2]: 2 (14.3) Number (%) of Subjects | Healed lesion PAS: Last Observed PAS Result Stage 1 [2]: 6 (42.9) Number (%) of Subjects | Healed lesion PAS: Last Observed PAS Result Stage 2 [2]: 2 (14.3) Number (%) of Subjects | Healed lesion PAS: Last Observed PAS Result Stage 3 [2]: 3 (21.4) Number (%) of Subjects | Healed lesion PAS: Last Observed PAS Result Stage 4 [2]: 1 (7.1) Number (%) of Subjects
